Measured values taken from US20130295199A1, “Composition Comprising OPC and Omega-3 for Preventing and/or Inhibiting the Development of Diabetic Retinopathy” (VISIOTACT PHARMA, priority 2011, published 2013).

Columns and labels:
[1] = tested on: Type-1 streptozotocin-induced diabetic Sprague-Dawley rats; experiment: Streptozotocin-induced diabetic rat model: body weight, blood glucose, glycated hemoglobin; type: in vivo; settings: STZ-induced diabetic Sprague-Dawley rats, after 90 days of treatment, n=20/group, mean +/- SEM
Experimental: (§1) Sprague-Dawley rats (Harlan), weighing 75-100 g, were assigned to one of eight subgroups, based on non-diabetic, untreated diabetic and treated diabetic groups as indicated here-under. Sprague-Dawley rats were housed in a constant environment (room temperature (22.0±1.5)° C., room humidity (55±5) %) with a normal light-dark cycle (12-hour light, 12-hour dark). Diabetes was induced by intraperitoneal streptozotocin injection (75 mg/kg STZ, 10 mM citrate buffer, pH 4.5). Non-diabetic control animals received an equivalent dose of vehicle (citrate buffer at pH 4.6).
To analyse the effect of the composition of the invention, animals are fed as followed:
Diabetic and non-diabetic groups were examined biweekly to follow blood glucose and the body weight was recorded. 50 μL of whole blood was collected in potassium-EDTA tubes (Becton Dickinson) for subsequent analysis of glycated hemoglobin (GHb).

[2] = tested on: retinal acellular capillaries; experiment: Quantitation of acellular capillaries in retina of diabetic animals; type: in vivo, rat; settings: FIG. 5, result in words
Experimental: as §1
Evaluation of the retinal vasculature is done following adenosine diphosphatase (ADPase) activity in whole embedded retina. After overnight fixation in 2% PFA in 0.1 M cacodylate buffer at 4° C., an incision was made 2 mm posterior to the ora serrata, and the anterior segment of the eye was removed. […] The ADPase-incubated retina was washed in 0.1 M cacodylate buffer with 5% sucrose. […] Retinal microvascular density was quantified using Image J software.
After TUNEL-positive cells were counted, coverslips were soaked off, and the retinal vasculature then was stained with hematoxylin-periodic acid-Schiff. Acellular capillaries were counted in four to seven field areas in the mid retina. […] Although counting the ghosts, at least 1000 capillary cells (endothelial cells and pericytes) were counted in five mid-retinal field areas. […]

[3] = tested on: advanced glycation end product (AGE), retinal carboxymethyl-lysine; experiment: Retinal carboxymethyl-lysine measurement (AGE-product quantification), ELISA; type: in vivo, rat; settings: STZ-induced diabetic Sprague-Dawley rats, after 90 days of treatment, n=20/group, mean +/- SEM
Experimental: as §1
Retinal samples were exposed to ultrasonic disruption in RIPA buffer. After tissue debris suppression by centrifugation, protein level of samples was measured using bicinchoninic acid (BCA) protein assay kit (Pierce). Sample (concentration: 50 μg/mL) or advanced glycation end product (AGE)-BSA standard (0 to 200 μM) diluted in 0.05% Tween 20 and 0.2% BSA in 75 mM PBS were placed in duplicate into 96-wells plate (Nunc C96 Maxisorp; eBioscience) coated with solid-phase antigen (1 μg/mL AGE-BSA). Anti-CML rabbit polyclonal antibody was added for 2 hours at room temperature and then washed in 0.2 mM KH2PO4, 1.4 mM K2HPO4, 3 mM NaCl, 0.45 μM sorbic acid potassium, and 0.01% Tween-20 buffer. […] Absorbance was measured at 450 nm on a microplate reader (Biorad).

Substance: docosahexaneoic acid (DHA) [Group G2]
- Body weight [1]: 220 ± 10 g
- GHb (glycated hemoglobin) [1]: 5.85 +/− 0.03%
- Glucose [1]: 525 ± 10 mg/dL
- Capillary degeneration (degenerated acellular capillaries) [2]: significantly inhibited
- AGE (advanced glycation end product) [3]: 0.026 +/− 0.004 AU/mg
